# From paper PMC9146695, “Globularia alypum L. and Related Species: LC-MS Profiles and Antidiabetic, Antioxidant, Anti-Inflammatory, Antibacterial and Anticancer Potential” (Pharmaceuticals, 2022)
# Read-outs that look alike come from different tables or passages of the source.
# Columns and labels:
# α-glucosidase = conditions: cited from earlier work
# [1] = DPPH radical scavenging activity assay; conditions: methanolic aerial parts extracts (Soxhlet); 30 min
# Method: Antiradical activity was assessed using the free radical 2,2-diphenyl-1-picrylhydrazyl (DPPH) according to the previously described procedure. Methanolic stock solution of DPPH (0.1 mM) was dissolved to obtain absorbance of 0.70 ± 0.02. In 2 mL of prepared solution, 10 µL sample was added. After 30 min incubation, absorbance was measured at 517 nm with methanol used as blank. Results are expressed as concentrations observed to reduce the DPPH radical absorbance by 50% (IC50).
# [2] = system: CAMA-1 breast cancer cells; parameters: method as in doi:10.4314/tjpr.v17i9.4; conditions: cited from earlier work
# [3] = system: Enterococcus faecalis ATCC 29212; assay: Well diffusion method; format: cell-based; conditions: aerial parts extracts c = 50 mg/mL; antibiotics c = 0.2 mg/mL; n.d. = growth inhibition not detected
# Method: (§1) Antibacterial activity was evaluated using the following strains: Bacillus cereus American Type Culture Collection (ATCC, Manassas, VA, USA) 11778, B. subtilis ATCC 6633, Enterococcus faecalis ATCC 29212, Staphylococcus aureus ATCC 6538 and S. aureus ATCC 29213 among Gram-positive and Escherichia coli ATCC 10536, Klebsiella pneumoniae MFBF 10402 and Pseudomonas aeruginosa ATCC 27853 among Gram-negative bacterial species. Additionally, eight clinical isolates of S. aureus, including methicillin-resistant S. aureus (MRSA MFB F101, MRSA MFBF 124, MRSA MFBF 154, MRSA MFBF 164, and MRSA MFBF 177) and methicillin susceptible S. aureus (S. aureus MFBF 505, S. aureus MFBF 10661 and S. aureus MFBF 10666) were used. Bacterial strains were sourced from the Collection of Microorganisms, Department of Microbiology, Faculty of Pharmacy and Biochemistry, University of Zagreb. Inoculums were prepared from overnight cultures that were cultured on tryptic soy agar (TSA) at 37 °C, suspended in sterile physiological saline, with the optic density adjusted to 0.5 McFarland (1.5 × 10^8 colony-forming units (CFUs)/mL) using a densitometer (Densimat, BioMérieux, Marcy-l’Étoile, France). Right before cultivation in nutrient medium, 1 mL of each prepared suspension was dissolved with 9 mL physiological saline. Prior to cell treatment, sample stock solutions in distilled water (c = 50 mg/mL) were filtered through Chromafil cellulose acetate filters of pore size 0.22 μm (Macherey-Nagel, Düren, Germany).
# (§2) Well diffusion method was carried out according to the European Pharmacopoeia. Inoculums (100 μL) were transferred to individual petri dishes with 4 mm thick Müller–Hinton agar and equally distributed across agar surface with a glass L-stick. Wells were prepared using sterile stainless-steel cylinders (d = 6 mm) and filled with 50 μL of methanolic aerial parts extract solution (c = 50 mg/mL) in distilled water. Plates were incubated at 37 °C for 18 h in the dark. Diameters of the zones of inhibition of bacterial growth (mm) were read from the diameters of transparent zones around the wells. Gentamicin and norfloxacin (c = 0.2 mg/mL) were used as positive controls.
# [4] = system: Escherichia coli ATCC 10536; assay: Well diffusion method; format: cell-based; conditions: aerial parts extracts c = 50 mg/mL; antibiotics c = 0.2 mg/mL; n.d. = growth inhibition not detected
# Method: as §1, §2
# [5] = system: Klebsiella pneumoniae MFBF 10402; assay: Well diffusion method; format: cell-based; conditions: aerial parts extracts c = 50 mg/mL; antibiotics c = 0.2 mg/mL; n.d. = growth inhibition not detected
# Method: as §1, §2
# [6] = system: Pseudomonas aeruginosa ATCC 27853; assay: Well diffusion method; format: cell-based; conditions: aerial parts extracts c = 50 mg/mL; antibiotics c = 0.2 mg/mL; n.d. = growth inhibition not detected
# Method: as §1, §2
# [7] = system: Bacillus cereus ATCC 11778; assay: Well diffusion method; format: cell-based; conditions: aerial parts extracts c = 50 mg/mL; antibiotics c = 0.2 mg/mL; n.d. = growth inhibition not detected
# Method: as §1, §2
# [8] = system: Staphylococcus aureus ATCC 6538; assay: Well diffusion method; format: cell-based; conditions: aerial parts extracts c = 50 mg/mL; antibiotics c = 0.2 mg/mL
# Method: as §1, §2
# [9] = system: Bacillus subtilis ATCC 6633; assay: Well diffusion method; format: cell-based; conditions: aerial parts extracts c = 50 mg/mL; antibiotics c = 0.2 mg/mL; n.d. = growth inhibition not detected
# Method: as §1, §2
# S. aureus = conditions: cited from earlier work
# COX-1 = system: COX-1; parameters: method as in PMID 11849848; conditions: cited from earlier work
# [10] = system: Staphylococcus aureus ATCC 29213; assay: Serial broth microdilution with agar sub-cultivation; format: cell-based
# [11] = system: Pseudomonas aeruginosa ATCC 27853; assay: as above; format: cell-based; conditions: ATCC27853, aerial parts extracts, TTC detection, n.d. = growth inhibition not detected (0.36–22.73 mg/mL)
# P. aeruginosa = conditions: cited from earlier work
# [12] = cited from earlier work
# [13] = system: Escherichia coli ATCC 10536; assay: Serial broth microdilution with agar sub-cultivation; format: cell-based; conditions: ATCC10536, aerial parts extracts, TTC detection, n.d. = growth inhibition not detected (0.18–11.36 mg/mL)
# five MRSA strains = system: five MRSA strains; parameters: method as in PMID 18404351; conditions: cited from earlier work
# COX-2 = system: COX-2; parameters: method as in PMID 11849848; conditions: cited from earlier work
# [14] = system: Staphylococcus aureus ATCC 6538; assay: Serial broth microdilution with agar sub-cultivation; format: cell-based; conditions: ATCC6538, aerial parts extracts, TTC detection
# MDA-MB-231 = system: MDA-MB-231; parameters: method as in PMID 34719192; conditions: cited from earlier work
# E. faecalis = conditions: cited from earlier work
# [15] = system: S. aureus strains (MSSA and MRSA); assay: Serial broth microdilution, S. aureus strains taken together; format: cell-based; conditions: Staphylococcus aureus; reference standard; read-out: MIC, anti-staphylococcal activity
# E. coli = system: E. coli; parameters: method as in doi:10.1016/j.sajb.2010.04.010; conditions: range given for both compounds; cited from earlier work
# B. subtilis = system: B. subtilis; parameters: method as in PMID 31737673; conditions: same ATCC strain as in the present study; cited from earlier work
# [16] = system: B. subtilis, B. cereus and S. aureus; parameters: method as in earlier work; conditions: cited from earlier work
# HL60 cells = conditions: cited from earlier work
# KB cells = conditions: cited from earlier work
# [17] = system: YMB-1 breast cancer cells; conditions: cited from earlier work
# [18] = system: HT-29 human colon adenocarcinoma cells; parameters: method as in doi:10.1007/s00044-015-1500-z; conditions: cited from earlier work
# [19] = compounds from Origanum majorana leaves
# [20] = isolated compounds of Clerodendrum bungei
# [21] = same ATCC strain as in the present study
# [22] = constituents of G. alypum and standards, read-out: DPPH radical scavenging IC50
smiles,measurement,setting,value
"O=c1cc(-c2ccc(O)cc2)oc2cc(O)c(O)c(O)c12 [6-hydroxyapigenin, 6-hydroxyapigenin (scutellarein)]",IC50,α-glucosidase; [19],12 µM
"O=c1cc(-c2ccc(O)c(O)c2)oc2cc(O[C@@H]3O[C@H](CO)[C@@H](O)[C@H](O)[C@H]3O)c(O)c(O)c12 [6-hydroxyluteolin 7-O-glucoside, 6-Hydroxyluteolin 7-O-glucoside]",IC50,α-glucosidase; [19],300 µM
O=c1cc(-c2ccc(O)c(O)c2)oc2cc(O)c(O)c(O)c12 [6-hydroxyluteolin],IC50,α-glucosidase; [19],10 µM
"O=C(O)c1cc(O)c(O)c(O)c1 [Gallic Acid, gallic acid]",DPPH radical scavenging activity IC50,[1],0.64 µg/mL
"O=C(OCC1=CC(O)C2(O)C=COC(O[C@@H]3O[C@H](CO)[C@@H](O)[C@H](O)[C@H]3O)C12)c1ccccc1 (some centres unmarked) [Globularifolin, Globularifolin (10-O-Benzoylmonomelittoside)]",IC50,[2],10 µM
"CCn1cc(C(=O)O)c(=O)c2cc(F)c(N3CCNCC3)cc21 [Norfloxacin, norfloxacin]",growth inhibition zone,[3],23.8 ± 0.8 mm
same,growth inhibition zone,[4],44.7 ± 1.0 mm
same,growth inhibition zone,[5],7.3 ± 0.5 mm
same,growth inhibition zone,[6],30.7 ± 2.8 mm
same,growth inhibition zone,[7],26.6 ± 0.9 mm
same,growth inhibition zone,[8],33.8 ± 0.8 mm
same,growth inhibition zone,[9],41.0 ± 0.0 mm
Cc1c(C)c2c(c(C)c1O)CCC(C)(C(=O)O)O2 (centres unmarked) [Trolox],DPPH radical scavenging activity IC50,[1],2.71 µg/mL
"C[C@@H]1O[C@@H](O[C@@H]2[C@@H](O)[C@H](OCCc3ccc(O)c(O)c3)O[C@H](CO)[C@H]2OC(=O)/C=C/c2ccc(O)c(O)c2)[C@H](O)[C@H](O)[C@H]1O [Verbascoside, Verbascoside (Acteoside)]","MIC, anti-staphylococcal activity",S. aureus,60 µg/mL
same,IC50,α-glucosidase; [20],500 µM
same,IC50,COX-1,> 1000 µM
same,MIC,"[10]; ATCC29213, aerial parts extracts, TTC detection",227 µg/mL
same,MBC,"[10]; ATCC29213, agar sub-cultivation",227 µg/mL
same,MIC,[11],227 µg/mL
same,MIC against P. aeruginosa,P. aeruginosa; given for both compounds,250 µg/mL
same,IC50,[12]; read-out: DPPH radical scavenging capacity IC50,58.1 µM
same,MIC,[13],227 µg/mL
same,MIC against five MRSA strains,five MRSA strains,64 to 256 µg/mL
same,IC50,COX-2,690 µM
same,MIC,[14],227 µg/mL
same,IC50,MDA-MB-231,0.159 to 0.258 µM
same,MIC against E. faecalis,E. faecalis; range given for both compounds,100 to 150 µg/mL
same,MIC,[15],227 µg/mL
same,MIC against E. coli,E. coli,100 to 250 µg/mL
"O=c1cc(-c2ccc(O)cc2)oc2cc(O)cc(O)c12 [apigenin, Apigenin]",inhibitory activity against S. aureus,S. aureus,no inhibitory activity was observed
same,IC50,α-glucosidase; [19],> 500 µM
same,MIC against B. subtilis,B. subtilis,8 µg/mL
same,"MIC against B. subtilis, B. cereus and S. aureus",[16],30 to 80 µg/mL
same,MIC against P. aeruginosa,P. aeruginosa; [21],64 to 400 µg/mL
same,MIC against E. faecalis,E. faecalis; [21],8 µg/mL
"CC(=O)OCC1=C[C@@H]2OC(=O)C3=CO[C@@H](O[C@@H]4O[C@H](CO)[C@@H](O)[C@H](O)[C@H]4O)[C@H]1[C@@H]32 [asperuloside, Asperuloside]",IC50 HL60 cells,HL60 cells,11.0 µg/mL
same,IC50 KB cells,KB cells,104.2 µg/mL
same,IC50 YMB-1 breast cancer cells,[17],0.7 µg/mL
"CC(=O)OCC1=C[C@H](O)[C@@H]2C(C(=O)O)=CO[C@@H](O[C@@H]3O[C@H](CO)[C@@H](O)[C@H](O)[C@H]3O)[C@H]12 [asperulosidic acid, Asperulosidic acid]",IC50 HT-29 cell viability,[18],6.1 µg/mL
Cc1cc(C(C)(C)C)c(O)c(C(C)(C)C)c1 [butylated hydroxytoluene],IC50,[12]; [22],30 µM
"O=C(/C=C/c1ccc(O)c(O)c1)O[C@H]1[C@H](O)[C@@H](O)[C@H](OCCc2ccc(O)c(O)c2)O[C@@H]1CO [calceolarioside A, Calceolarioside A (Desrhamnosyl verbascoside)]",IC50,[12]; read-out: DPPH IC50,22.9 µM
"O=C(/C=C/c1ccc(O)c(O)c1)OC[C@H]1O[C@@H](OCCc2ccc(O)c(O)c2)[C@H](O)[C@@H](O)[C@@H]1O [calceolarioside B, Calceolarioside B (Desrhamnosyl isoverbascoside)]",IC50,[12]; read-out: DPPH IC50,26.2 µM
OCCc1ccc(O)c(O)c1 [hydroxytyrosyl moiety],IC50,α-glucosidase,150 µM
"C[C@@H]1O[C@@H](O[C@@H]2[C@@H](O)[C@H](OCCc3ccc(O)c(O)c3)O[C@H](COC(=O)/C=C/c3ccc(O)c(O)c3)[C@H]2O)[C@H](O)[C@H](O)[C@H]1O [isoverbascoside, Isoverbascoside (Isoacteoside)]","MIC, anti-staphylococcal activity",S. aureus,130 µg/mL
same,IC50,α-glucosidase; [20],100 µM
same,MIC against P. aeruginosa,P. aeruginosa; given for both compounds,250 µg/mL
same,MIC against E. faecalis,E. faecalis; range given for both compounds,100 to 150 µg/mL
same,MIC against E. coli,E. coli,100 to 250 µg/mL
"COc1cc(/C=C/C(=O)O[C@H]2[C@H](O[C@@H]3O[C@@H](C)[C@H](O)[C@@H](O)[C@H]3O)[C@@H](O)[C@H](OCCc3ccc(O)c(O)c3)O[C@@H]2CO)ccc1O [leucosceptoside A, Leucosceptoside A]",IC50,α-glucosidase; [20],700 µM
O=c1cc(-c2ccc(O)c(O)c2)oc2cc(O[C@@H]3O[C@H](CO)[C@@H](O)[C@H](O)[C@H]3O)cc(O)c12 [luteolin 7-O-glucoside],"MIC against B. subtilis, B. cereus and S. aureus",[16],50 to 90 µg/mL
O=c1cc(-c2ccc(O)c(O)c2)oc2cc(O)cc(O)c12 [luteolin],IC50,α-glucosidase; [19],> 500 µM
O=c1c(O)c(-c2ccc(O)c(O)c2)oc2cc(O)cc(O)c12 [quercetin],IC50,[12]; [22],7.8 µM
"O=c1cc(-c2ccc(O)cc2)oc2c([C@@H]3O[C@H](CO)[C@@H](O)[C@H](O)[C@H]3O)c(O)c([C@@H]3O[C@H](CO)[C@@H](O)[C@H](O)[C@H]3O)c(O)c12 [vicenin-2, Vicenin-2 (Apigenin-6,8-di-C-glucoside)]",IC50,α-glucosidase,271 µM
